In patent US6043231A, “Inhibition of excessive phospholipase A2 activity and/or production by non-antimicrobial tetracyclines” (The Research Foundation of State Univ. of New York, priority 1993, dated 2000):

What was measured:
Format in all cases: biochemical
[1] = target: T1, recombinant human PLA2 (snpPLA2) (Homo sapiens, UniProt P14555); test: PLA2 inhibition, radiolabelled E. coli assay, recombinant human PLA2
T1 sequence (P14555 21-144): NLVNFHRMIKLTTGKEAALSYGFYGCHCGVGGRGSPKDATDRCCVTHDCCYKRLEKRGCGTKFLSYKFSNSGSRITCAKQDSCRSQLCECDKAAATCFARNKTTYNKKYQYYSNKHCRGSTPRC
Method: (§1) Six different chemically-modified tetracyclines, including CMT-1 (4-dedimethylaminotetracycline), CMT-2 (tetracyclinonitrile), CMT-3 (6-demethyl-6-deoxy-4-de-dimethylaminotetracycline), CMT-4 (4-de-dimethylamino-7-chloro-tetracycline), CMT-5 (pyrazole analog) and CMT-6 (4-hydroxy-4-dedimethylaminotetracycline), were examined for their ability to inhibit PLA2 activity in vitro. The sources of PLA2 that were tested included recombinant human PLA2, human pancreatic and porcine pancreatic PLA2 and Naja naja PLA2. […] Various concentrations of CMTs, ranging from 5-100 μg/ml, were preincubated with the different PLA2 enzymes for 30 minutes and the mixture was tested for PLA2 activity using a known E. coli assay method (see Arthritis and Rheumatism, 34 Supp. 9: p. S160 (abst C167)).
(§2) A chemically-modified tetracycline, 4-dedimethyl-amino-7-dimethylaminotetracycline (CMT-10), was examined for its ability to inhibit PLA2 activity in vitro. The sources of PLA2 that were tested included were recombinant human PLA2 (snpPLA2), human pancreatic and porcine pancreatic PLA2 and Naja naja PLA2. […] Various concentrations of CMT-10, ranging from 5-100 μg/ml, were preincubated with the different PLA2 enzymes for 30 minutes and the mixture was tested for PLA2 activity using a known E. coli assay method (see Arthritis and Rheumatism, 34 Supp. 9: p. S160 (abst C167)).
(§3) In particular, [^14 C]Oleic acid-labelled Escherichia coli (strain K12 C600) were used as the substrate. This substrate has been characterized with respect to phospholipid composition and distribution of radiolabel. Reaction mixtures contained 10 mg bovine serum albumin, 2 mM CaCl2, 2.8×10^8 radiolabelled E. coli and 0.1 M Tris-HCl buffer, pH 7.5 in a total volume of 1.5 ml. Reaction mixtures were incubated at 37° C. for 30 min. The reaction was terminated by filtration through a 0.45 μm Millipore filter, thereby retaining unhydrolysed E. coli membranes, and allowing the [^14 C]oleic acid bound to the BSA carrier, released as a result of PLA2 hydrolysis, to pass through the filter. Assays were performed in duplicate and values shown represent the mean of two determinations with a SD<5% of the mean. Assays were performed in substrate excess and enzyme activities were corrected for non-enzymatichydrolysis. One unit of PLA2 activity is defined as the hydrolysis of 56 pmol of phospholipid substrate (representing 1% of total E. coli phospholipid) in 30 min at 37° C.

human pancreatic PLA2 = target: T2, human pancreatic PLA2 (Homo sapiens, UniProt P04054); test: PLA2 inhibition, E. coli assay, human pancreatic PLA2
T2 construct: labelled E. coli membrane substrate
T2 sequence (P04054 23-148): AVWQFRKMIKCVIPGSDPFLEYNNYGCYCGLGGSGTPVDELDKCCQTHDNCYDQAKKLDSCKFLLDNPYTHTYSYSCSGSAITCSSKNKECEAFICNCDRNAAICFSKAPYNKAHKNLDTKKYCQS
Method: as §1, §2, §3

porcine pancreatic PLA2 = target: T3, porcine pancreatic PLA2 (Sus scrofa, UniProt P00592); test: PLA2 inhibition, E. coli assay, porcine pancreatic PLA2
T3 construct: labelled E. coli membrane substrate
T3 sequence (P00592 23-146): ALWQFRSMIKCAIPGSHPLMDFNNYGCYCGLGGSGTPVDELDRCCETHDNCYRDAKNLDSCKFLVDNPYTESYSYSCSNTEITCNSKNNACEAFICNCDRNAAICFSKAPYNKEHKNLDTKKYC
Method: as §1, §2, §3

[2] = concentrations of 25 μg/ml or greater
[3] = recombinant human PLA2, 30 min preincubation

SMILES | PLA2-inhibitory activity [1, 2] | IC50 (concentration of the drug required to inhibit 50% of PLA2) [1, 3] [µg/mL] | inhibition of human pancreatic PLA2 (human pancreatic PLA2) | inhibition of porcine pancreatic PLA2 (porcine pancreatic PLA2) | PLA2-inhibitory activity ([1]; highest concentrations tested (range 5-100 μg/ml)) | IC50 ([1]; recombinant human PLA2, 30 min preincubation, read-out: IC50 (concentration of the drug required to inhibit 50% of PLA2) (converted)) [µM] | % inhibition (human pancreatic PLA2; 30 μg/ml, human pancreatic PLA2) [%]
CC1(O)c2cccc(O)c2C(=O)C2=C(O)C3(O)C(=O)C(C(N)=O)=C(O)CC3CC21 (stereo not drawn) [CMT-1, 4-dedimethylaminotetracycline] | exhibited significant PLA2 -inhibitory activity | 37 | found to inhibit | found to inhibit |  |  | 
CN(C)C1C(=O)C(C#N)=C(O)C2(O)C(=O)C3=C(O)c4c(O)cccc4C(C)(O)C3CC12 (stereo not drawn) [CMT-2, tetracyclinonitrile] |  |  |  |  | lacked any PLA2 -inhibitory activity |  | 
NC(=O)C1=C(O)C2(O)C(=O)C3=C(O)c4c(O)cccc4CC3CC2CC1=O (stereo not drawn) [CMT-3, 6-demethyl-6-deoxy-4-de-dimethylaminotetracycline] | exhibited significant PLA2 -inhibitory activity |  | found to inhibit | found to inhibit |  | 75.4 | 
CC1(O)c2c(Cl)ccc(O)c2C(=O)C2=C(O)C3(O)C(=O)C(C(N)=O)=C(O)CC3CC21 (stereo not drawn) [CMT-4, 4-de-dimethylamino-7-chloro-tetracycline] | exhibited significant PLA2 -inhibitory activity | 42 | found to inhibit | found to inhibit |  |  | 
CC1(O)c2cccc(O)c2C(=O)C2=C(O)C3(O)C(=O)C(C(N)=O)=C(O)C(O)C3CC21 (stereo not drawn) [CMT-6, 4-hydroxy-4-dedimethylaminotetracycline] | exhibited significant PLA2 -inhibitory activity | 17 | found to inhibit | found to inhibit |  |  | 
CN(C)c1ccc(O)c2c1C(C)(O)C1CC3CC(O)=C(C(N)=O)C(=O)C3(O)C(O)=C1C2=O (stereo not drawn) [CMT-10, 4-dedimethylamino-7-dimethylaminotetracycline] | exhibited significant PLA2 -inhibitory activity | 30 | found to inhibit |  |  |  | 66
